The test system of one assay is Botrytis cinerea. Description: Antimicrobial activity against Botryotinia fuckeliana assessed as mycelial growth inhibition after 3 to 5 days. The assay is classed as functional.
In the next assay the test system is Ilyonectria destructans. The experiment in a line: Antimicrobial activity against Ilyonectria radicicola assessed as mycelial growth inhibition after 3 to 5 days. The assay is classed as functional.
The next assay has as its system Globisporangium ultimum. The experiment in a line: Antimicrobial activity against Pythium ultimum assessed as mycelial growth inhibition after 3 to 5 days. The assay is classed as functional.
A further assay deals with Saccharomyces cerevisiae. The experiment in a line: Antimicrobial activity against Saccharomyces cerevisiae assessed as mycelial growth inhibition after 3 to 5 days. The assay is classed as functional.
The subject of assay [1] is Colletotrichum orbiculare. Description: Antimicrobial activity against Colletotrichum orbiculare assessed as mycelial growth inhibition after 3 to 5 days. The assay is classed as functional.
A further assay has as its system Bacillus subtilis. Description: Antimicrobial activity against Bacillus subtilis assessed as mycelial growth inhibition after 3 to 5 days. The assay is classed as functional.
In assay [2] the test system is Colletotrichum orbiculare. Description: Antifungal activity against Colletotrichum orbiculare infested cucumber plant grown under greenhouse condition assessed as reduction in lesion formation on second leaves at 500 ug/ml sprayed at two-leaf stage 1 day prior inoculation measured after 6 days post inoculation. The assay is classed as functional, organism-based.
The next assay relates to Sclerotinia sclerotiorum. Description: Antimicrobial activity against Sclerotinia sclerotiorum assessed as mycelial growth inhibition after 3 to 5 days. The assay is classed as functional.
Another assay relates to Candida albicans. Description: Antimicrobial activity against Candida albicans assessed as mycelial growth inhibition after 3 to 5 days. The assay is classed as functional.
Another assay relates to Xanthomonas campestris. The experiment in a line: Antimicrobial activity against Xanthomonas euvesicatoria assessed as mycelial growth inhibition after 3 to 5 days. The assay is classed as functional.
Another assay relates to Ralstonia solanacearum. Description: Antimicrobial activity against Ralstonia solanacearum assessed as mycelial growth inhibition after 3 to 5 days. The assay is classed as functional.
Another assay has as its system Rhizoctonia solani. Description: Antimicrobial activity against Rhizoctonia solani assessed as mycelial growth inhibition after 3 to 5 days. The assay is classed as functional.
For assay [3], the system named is Fusarium oxysporum f. sp. lycopersici. The experiment in a line: Antimicrobial activity against Fusarium oxysporum f. sp. lycopersici assessed as mycelial growth inhibition after 3 to 5 days. The assay is classed as functional.
The test system of the next assay is Pyricularia grisea. The experiment in a line: Antimicrobial activity against Magnaporthe grisea assessed as mycelial growth inhibition after 3 to 5 days. The assay is classed as functional.
Assay [4] has as its system Pectobacterium carotovorum subsp. carotovorum. The experiment in a line: Antimicrobial activity against Pectobacterium carotovorum subsp. carotovorum assessed as mycelial growth inhibition after 3 to 5 days. The assay is classed as functional.
The test system of another assay is Cladosporium cucumerinum. Description: Antimicrobial activity against Cladosporium cucumerinum assessed as mycelial growth inhibition after 3 to 5 days. The assay is classed as functional.
The next assay has as its system Phytophthora capsici. The experiment in a line: Antimicrobial activity against Phytophthora capsici assessed as mycelial growth inhibition after 3 to 5 days. The assay is classed as functional.
The subject of another assay is Alternaria mali. The experiment in a line: Antimicrobial activity against Alternaria mali assessed as mycelial growth inhibition at 100 ug/ml after 3 to 5 days. The assay is classed as functional, organism-based.
Assay [5] has as its system Colletotrichum orbiculare. The experiment in a line: Antifungal activity against Colletotrichum orbiculare infested cucumber plant grown under greenhouse condition assessed as supression of anthracnose development at 500 ug/ml sprayed at two-leaf stage 1 day prior inoculation measured after 6 days post inoculation. The assay is classed as functional, organism-based.
Assay [6] concerns Colletotrichum orbiculare. Description: Antifungal activity against Colletotrichum orbiculare infested cucumber plant grown under greenhouse condition assessed as reduction in lesion formation on second leaves at 10 to 500 ug/ml sprayed at two-leaf stage 1 day prior inoculation measured after 6 days post inoculation. The assay is classed as functional, organism-based.

The source of these data is ChEMBL document CHEMBL3046564, “Antifungal activity of beta-asarone from rhizomes of Acorus gramineus” (2004).

Values after ≈ are worked out from the molar mass of the structure shown. Active and inactive are the calls of the source. The calls are words filed in the database; no cut-off is given here. Where only a bound is given, the exact number is not on record here.

The MIC is the least concentration at which growth counts as inhibited. Turning to `C/C=C\c1cc(OC)c(OC)cc1OC` [CIS-ASARONE], the minimal inhibitory concentration (MIC) with Botrytis cinerea is more than 100 mg/L; in the assay on Ilyonectria destructans, more than 100 mg/L; in the assay on Globisporangium ultimum, 0.5 mg/L (≈ 2.4 µM); in the assay on Saccharomyces cerevisiae it was more than 100 mg/L; in assay [1], 30 mg/L (≈ 144 µM); in the assay with Bacillus subtilis, 50 mg/L (≈ 240 µM). The minimum inhibitory concentration (MIC) in the assay with Sclerotinia sclerotiorum was more than 100 mg/L; with Candida albicans, more than 100 mg/L; in the assay on Xanthomonas campestris, 50 mg/L (≈ 240 µM); in the assay on Ralstonia solanacearum, 50 mg/L (≈ 240 µM); in the assay on Rhizoctonia solani, more than 100 mg/L; in [3], more than 100 mg/L. Moreover, the MIC with Pyricularia grisea was 30 mg/L (≈ 144 µM); in assay [4] it was 50 mg/L (≈ 240 µM); with Cladosporium cucumerinum it was 30 mg/L (≈ 144 µM); in the assay on Phytophthora capsici it was more than 100 mg/L. The outcome in assay [2] and in [5] was Active. The “growth inhibition (GI)” value with Alternaria mali is “inactive”.

For `N#Cc1c(Cl)c(Cl)c(Cl)c(C#N)c1Cl`, the result in assay [6] was Active.
